Source: patent publication US10227350B2 (Gilead Sciences, Inc., priority 2016, dated 2019)

Each compound was assayed against PI3Kβ (Homo sapiens (Human), UniProt P42338) (assay: TR-FRET enzymatic activity assay, PI3Kβ). Conditions: 2× Km ATP, 2 μM PIP2, 30 minutes at 25° C., read-out: IC50-PIP-Beta.
Assay type: biochemical
Outline: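 Purified recombinant heterodimeric PI3Kβ; PIP3 formation read by TR-FRET as competition with fluorescent tracer for GRP-1 PH domain binding. Compounds incubated 30 min at 25 °C.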

PI3Kβ, sequence (P42338 whole entry): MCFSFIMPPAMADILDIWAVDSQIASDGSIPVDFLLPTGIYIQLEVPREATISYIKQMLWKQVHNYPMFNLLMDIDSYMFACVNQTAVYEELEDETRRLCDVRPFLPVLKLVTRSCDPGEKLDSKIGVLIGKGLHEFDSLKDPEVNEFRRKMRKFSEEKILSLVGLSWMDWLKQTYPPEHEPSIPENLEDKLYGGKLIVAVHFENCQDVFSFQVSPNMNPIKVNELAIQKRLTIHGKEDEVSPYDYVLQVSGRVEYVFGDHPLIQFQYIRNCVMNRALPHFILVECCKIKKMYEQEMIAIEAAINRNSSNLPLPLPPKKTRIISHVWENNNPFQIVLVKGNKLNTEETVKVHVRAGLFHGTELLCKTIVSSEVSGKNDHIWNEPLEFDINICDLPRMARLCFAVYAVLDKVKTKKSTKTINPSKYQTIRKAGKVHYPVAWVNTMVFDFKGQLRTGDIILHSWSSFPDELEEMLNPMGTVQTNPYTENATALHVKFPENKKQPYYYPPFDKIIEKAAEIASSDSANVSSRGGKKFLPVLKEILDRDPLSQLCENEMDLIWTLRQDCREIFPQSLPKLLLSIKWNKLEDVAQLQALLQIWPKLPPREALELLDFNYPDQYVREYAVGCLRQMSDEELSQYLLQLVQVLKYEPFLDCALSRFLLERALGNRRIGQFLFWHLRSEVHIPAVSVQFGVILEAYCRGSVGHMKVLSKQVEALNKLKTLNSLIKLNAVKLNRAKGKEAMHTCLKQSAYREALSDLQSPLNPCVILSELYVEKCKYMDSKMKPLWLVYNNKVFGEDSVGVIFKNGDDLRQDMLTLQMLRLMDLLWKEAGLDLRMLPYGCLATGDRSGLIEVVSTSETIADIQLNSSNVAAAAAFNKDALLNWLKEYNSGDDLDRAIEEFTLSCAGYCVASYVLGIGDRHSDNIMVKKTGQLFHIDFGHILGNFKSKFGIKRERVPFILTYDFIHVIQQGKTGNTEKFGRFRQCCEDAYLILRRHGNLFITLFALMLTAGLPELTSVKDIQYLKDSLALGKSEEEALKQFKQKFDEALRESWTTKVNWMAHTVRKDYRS
PI3Kβ, sequence (P27986 whole entry partner): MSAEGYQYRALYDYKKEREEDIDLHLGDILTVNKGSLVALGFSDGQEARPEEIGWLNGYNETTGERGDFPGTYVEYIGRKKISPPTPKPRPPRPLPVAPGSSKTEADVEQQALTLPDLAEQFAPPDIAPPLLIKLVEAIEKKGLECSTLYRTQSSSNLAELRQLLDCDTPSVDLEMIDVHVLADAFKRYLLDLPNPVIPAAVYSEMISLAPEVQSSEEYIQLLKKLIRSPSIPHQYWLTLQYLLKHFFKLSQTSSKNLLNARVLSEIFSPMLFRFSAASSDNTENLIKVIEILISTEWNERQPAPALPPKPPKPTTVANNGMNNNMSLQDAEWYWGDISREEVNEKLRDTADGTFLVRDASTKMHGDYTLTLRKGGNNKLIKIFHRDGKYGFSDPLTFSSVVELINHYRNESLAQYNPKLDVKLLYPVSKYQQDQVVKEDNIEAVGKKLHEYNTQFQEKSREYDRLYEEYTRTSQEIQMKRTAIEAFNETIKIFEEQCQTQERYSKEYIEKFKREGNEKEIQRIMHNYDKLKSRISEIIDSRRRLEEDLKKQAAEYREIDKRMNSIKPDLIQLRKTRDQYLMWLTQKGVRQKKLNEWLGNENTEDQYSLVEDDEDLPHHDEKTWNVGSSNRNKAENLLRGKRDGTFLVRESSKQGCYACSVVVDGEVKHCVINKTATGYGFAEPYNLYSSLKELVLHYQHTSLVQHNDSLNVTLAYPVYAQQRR

Row | IC50 [nM] | SMILES
1 | 6 | Cc1nc2c(-c3nnc[nH]3)cc(-c3ccnc(C#N)c3)cc2n1-c1ccnc2cc(F)cc(F)c12 [Example 143, 4-(1-(5,7-difluoroquinolin-4-yl)-2-methyl-4-(4H-1,2,4-triazol-3-yl)-1H-benzo[d]imidazol-6-yl)picolinonitrile]
2 | 2800 | Cc1c(-c2cc(-c3nnc[nH]3)c3nc(C)n(-c4ccnc5c(F)ccc(F)c45)c3c2)ccnc1N [Example 101, 4-[3-(5,8-difluoroquinolin-4-yl)-2-methyl-7-(4H-1,2,4-triazol-3-yl)benzimidazol-5-yl]-3-methylpyridin-2-amine]
3 | 200 | Cc1nc2c(-c3nnc[nH]3)cc(-c3ccnc(C#N)c3)cc2n1-c1ccnc2cccc(Cl)c12 [Example 146, 4-(1-(5-chloroquinolin-4-yl)-2-methyl-4-(4H-1,2,4-triazol-3-yl)-1H-benzo[d]imidazol-6-yl)picolinonitrile]
4 | 110 | Cc1nnc(-c2cc(-c3ccncc3)cc3c2nc(C)n3-c2ccnc3c(F)ccc(F)c23)[nH]1 [Example 33, 5,8-difluoro-4-[2-methyl-4-(5-methyl-4H-1,2,4-triazol-3-yl)-6-pyridin-4-ylbenzimidazol-1-yl]quinoline]
